Ten compounds from US9139546B2, “Tri-aryl/heteroaromatic cannabinoids and use thereof” (priority 2007, dated 2015) can be followed below.

Experiment [1] has as its target human CB2 receptor (Homo sapiens (Human), UniProt P34972). The experiment is described as follows: Receptor binding assay, CB2 ([3H]CP 55,940 displacement). As to conditions: for CB1/CB2: ratio of Ki CB-1 to Ki CB-2; for Ki: as repeated in the anti-inflammatory table, read-out: CB-2 Ki. As for the experimental part: (§1) The assays were carried out in 96 well plates obtained from Millipore, Inc. fitted with glass fiber filters (hydrophilic, GFC filters) having a pore size of 1.2μ. The filters were soaked with 0.05% polyethyleneimine solution and washed 5× with deionized water prior to carrying out the assays. The filtrations were carried out on a 96 well vacuum manifold (Millipore Inc.), the filters punched out with a pipette tip directly into scintillation vials at the end of the experiment and vials filled with 5 ml scintillation cocktail Ecolite (+) (Fisher Scientific). Counting was carried out on a Beckmann Scintillation Counter model LS6500. Drug solutions were prepared in DMSO and the radioligand was dissolved in ethanol.
(§2) 50 mM TRIS-HCl, 5 mM MgCl2, 2.5 mM EDTA, 0.5 mg/ml fatty acid free bovine serum albumin, pH 7.4.
(§3) The membranes were filtered and the filters washed 7× with 0.2 ml ice-cold incubation buffer and allowed to air dry under vacuum.
(§4) Final data are presented as Ki±S.E.M. of n≧3 experiments.

Experiment [2] concerns the target human CB1 receptor (Homo sapiens (Human), UniProt P21554). The experiment is described as follows: Receptor binding assay, CB1 ([3H]CP 55,940 displacement). The note with it: as repeated in the anti-inflammatory table; read-out: CB-1 Ki. As for the experimental part:
as §1, §2, §3, §4

For experiment [3], the system named is NF-κB. The experiment is described as follows: NF-κB SEAP reporter assay in TNF-α treated A549 cells. It counts as cell-based. As to conditions: Homo sapiens, read-out: NF-κB Reduction; for inhibition at 0.01 µM: 10 nM compound. Here is the method:
(§5) Human lung adenocarcinoma cell line A549 (alveolar type II epithelial-like) cells (ATCC, Manassas, Va.) were maintained in growth media consisting of DMEM supplemented with 10% heat-inactivated fetal calf serum, 2 mM L-glutamine, 100 U/ml penicillin, and 100 μg/ml streptomycin.
The plasmid pNF-κB-SEAP-NPT was kindly provided by Dr. Y. S. Kim of the Seoul National University. This plasmid contains a secreted alkaline phosphatase (SEAP) reporter gene coupled with the κB response element. Upon activation, NF-κB translocates to the nucleus and binds to the κB response element causing transcriptional activation. This activation drives production of the SEAP reporter, which is secreted into the cell culture supernatant where it can be measured. The neomycin phosphotransferase (NPT) region of the plasmid provides resistance to the antibiotic G-418.
A549 cells were stably transfected with pNF-κB-SEAP-NPT using GeneJammer Transfection Reagent (Stratagene, La Jolla, Calif.) per manufacturer's protocol. G-418 (500 μg/ml) was added 24 hrs after transfection to select for stable transfection of NF-κB. Resistant colonies were selected and maintained in growth media supplemented with 500 μg/ml G-418.
Previous experiments have shown A549 cells respond to the pro-inflammatory cytokine TNF-α by activation of the pro-inflammatory transcription factor, NF-κB. This effect is dose dependent with the maximum effect seen at 10 ng/mL TNF-α. Compounds with anti-inflammatory activity can be used to inhibit this activation of NF-κB.
One day prior to treatment, transfected cells were seeded in 24 well culture plates at 6×10^4 cells/well in 1 mL of DMEM containing 1% FCS. On the day of treatment, media was aspirated. Following PBS wash, 1 mL of media containing 1% FCS, 10 ng/mL TNF-α, and varying concentrations of test compounds was added. Cell culture supernatant was collected at 18 hours. SEAP production was measured in 50 μL of supernatant using the Great EscAPe™ chemiluminescence kit (Clontech, Mountain View, Calif.). Briefly, samples were incubated at 65° C. for 30 minutes to inactivate endogenous alkaline phosphate. Following a 5-minute equilibration with assay buffer, chemiluminescent substrate and enhancer was added. Chemiluminescence was measured after 10 minutes. Higher levels of chemiluminescence result from increased SEAP production and correspond to NF-κB activity. Compounds capable of inhibiting NF-κB activation due to TNF-α are determined by a reduction in chemiluminescence values when cells are treated with TNF-α and test compound versus cells treated with TNF-α alone.

In experiment [4] the test system is IL-6. The experiment is described as follows: IL-6 level in supernatant of TNF-α treated A549 cells (multiplex bead immunoassay). It counts as cell-based, human. As to conditions: A549, 10 ng/mL TNF-α, 18 hours. As for the experimental part: as §5
(§6) One day prior to treatment, A549 cells were seeded in 24 well culture plates at 6×10^4 cells/well in 1 mL of DMEM containing 1% FCS. On the day of treatment, media was aspirated. Following PBS wash, 1 mL of media containing 1% FCS, 10 ng/mL TNF-α, and varying concentrations of test compounds was added. Samples were collected at 18 hours and immediately transferred to −80° C. until the day of analysis.
(§7) Levels of IL-6 and CXCL-8 were measured in cell culture supernatant using the Multiplex Bead Immunoassay Kit (Biosource, Camarillo, Calif.) paired with the Luminex® 200™ System. Standard solutions were prepared by serial dilution in a 50% media, 50% buffer solution so that they were in the same matrix as the samples. Standards and samples were mixed with a solution containing beads coated with capture antibodies specific for IL-6 and CXCL-8. Each capture antibody is bound to a specific bead population with a known internal fluorescence. The Luminex system can differentiate between internal fluorescence of beads allowing detection of multiple analytes in the same well. Following overnight incubation to allow complexation of protein with capture antibodies, wells were washed and beads resuspended in assay buffer. Biotinylated reporter antibodies specific for IL-6 and CXCL-8 were added and incubated for 1.5 hours. Unbound antibodies were removed by washing, and Streptavidin-Phycoerythrin (PE) was added and incubated 30 minutes. Streptavidin binds to biotin on the reporter antibodies. Unbound reagents were removed and samples were analyzed by the Luminex system. This system utilizes a flow cytometry system and lasers capable of exciting the internal dyes of the beads and PE. The machine separates signals from beads with different internal fluorescence and measures fluorescence intensity from PE bound to these beads through protein-antibody interactions. This fluorescence intensity is reported as the median of 100 beads per cytokine in each well. Concentrations were interpolated by fitting fluorescence intensity from unknowns to the standard curves.
(§8) Cells treated with the pro-inflammatory cytokine TNF-α increase production of IL-6 and CXCL-8 when compared to cells not treated with TNF-α. Cells treated with anti-inflammatory compounds block the inflammatory effect of TNF-α and produce IL-6 and CXCL-8 levels similar to cells that are not treated with TNF-α.

Experiment [5] deals with CXCL-8. The experiment is described as follows: CXCL-8 level in supernatant of TNF-α treated A549 cells (multiplex bead immunoassay). It counts as cell-based, human. As to conditions: 4 μM compound; A549, 10 ng/mL TNF-α, 18 hours. As for the experimental part: as §5, §6, §7, §8

Some results are limits rather than exact numbers.

Sequence of human CB1 receptor (P21554 whole entry): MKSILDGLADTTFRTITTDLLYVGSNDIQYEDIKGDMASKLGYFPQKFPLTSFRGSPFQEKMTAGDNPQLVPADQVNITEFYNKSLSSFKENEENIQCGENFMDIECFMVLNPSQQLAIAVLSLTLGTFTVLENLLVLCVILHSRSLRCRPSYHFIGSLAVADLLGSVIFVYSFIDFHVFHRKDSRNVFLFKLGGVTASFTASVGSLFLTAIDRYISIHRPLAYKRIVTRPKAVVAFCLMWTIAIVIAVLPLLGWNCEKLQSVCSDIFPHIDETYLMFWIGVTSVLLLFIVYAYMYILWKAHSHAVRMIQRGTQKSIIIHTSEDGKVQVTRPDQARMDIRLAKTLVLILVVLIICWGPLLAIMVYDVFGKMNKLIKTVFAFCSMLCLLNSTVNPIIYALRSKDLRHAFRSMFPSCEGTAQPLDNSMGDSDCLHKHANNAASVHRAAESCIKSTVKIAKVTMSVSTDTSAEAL

For `Cc1cccc(-c2c(O)cc(C(C)(C)c3ccccc3)cc2O)c1` [Compound 40, 3′-Methyl-4-(1-methyl-1-phenyl-ethyl)-biphenyl-2,6-diol], the CB1/CB2 in experiment [1] was 20.30.

Consider `COc1cc(C(=O)c2cccs2)cc(O)c1-c1cc(Cl)cc(Cl)c1` [Compound 30, (3′,5′-dichloro-2-hydroxy-6-methoxybiphenyl-4-yl)(thiophen-2-yl)methanone], for which, in experiment [1], the Ki amounted to 2.32 nM and the CB1/CB2 turned out to be 217. Moreover, the Ki in experiment [2] came to 503 nM. The inhibition at 1 µM in experiment [3] (A549, 18 h) worked out at 40%. For the same compound, in experiment [4] (1 μM compound), the “IL-6 Reduction” value was found to be 45%.

Turning to `CC(C)(c1cc(O)c(-c2cc(Cl)cc(Cl)c2)c(O)c1)c1cccs1` [Compound 44, 3′,5′-dichloro-4-(2-(thiophen-2-yl)propan-2-yl)biphenyl-2,6-diol], the CB1/CB2 in experiment [1] turned out to be 0.41.

For the compound `COc1cc(C(O)c2cccs2)cc(OC)c1-c1cc(Cl)cc(Cl)c1` (centres unmarked) [Compound 16, (3′,5′-dichloro-2,6-dimethoxybiphenyl-4-yl)(thiophen-2-yl)methanol], the Ki is 0.27 nM in experiment [1] and more than 1000 nM in experiment [2]. Moreover, the CB1/CB2 in experiment [1] stood at 3700. The “CXCL-8 Reduction” value in experiment [5] was determined as 80%. Further, in experiment [3] (4 μM compound, A549, 10 ng/mL TNF-α, 18 hours), the inhibition at 4 µM came to 45%. Further, the “IL-6 Reduction” value in experiment [4] (4 μM compound) is listed as 90%.

`CC(C)(c1ccc(-c2cc(Cl)cc(Cl)c2)c(O)c1)c1cccs1` [Compound 45, 3′,5′-dichloro-4-(2-(thiophen-2-yl)propan-2-yl)biphenyl-2-ol]: the CB1/CB2 in experiment [1] stood at 0.46.

In the case of `CC(C)(c1ccccc1)c1ccc(-c2cc(Cl)cc(Cl)c2)c(O)c1` [Compound 42, 3′,5′-dichloro-4-(2-phenylpropan-2-yl)biphenyl-2-ol], in experiment [1], the CB1/CB2 is given as 142.1.

With `Cc1cccc(-c2ccc(C(C)(C)c3ccccc3)cc2O)c1` [Compound 39, 3′-methyl-4-(2-phenylpropan-2-yl)biphenyl-2-ol], in experiment [1], the CB1/CB2 was 8.87.

Turning to `Cc1cccc(-c2c(O)cc(C(C)(C)c3cccs3)cc2O)c1` [Compound 43, 3′-methyl-4-(2-(thiophen-2-yl)propan-2-yl)biphenyl-2,6-diol], in experiment [1], the CB1/CB2 was found to be 0.05.

In the case of `Cc1cccc(-c2ccc(C(=O)c3ccccc3)cc2O)c1` [Compound 25, (2-hydroxy-3′-methylbiphenyl-4-yl)(phenyl)methanone], in experiment [1], the Ki is 454 nM and the CB1/CB2 turned out to be 2.21. Moreover, the inhibitory constant (Ki) in experiment [2] is more than 1000 nM. For the same compound, the inhibition at 0.01 µM in experiment [3] (A549, 10 ng/mL TNF-α, 18 hours) stood at 15%.

With `O=C(c1cc(O)c(-c2cc(Cl)cc(Cl)c2)c(O)c1)c1cccs1` [Compound 31, (3′,5′-dichloro-2,6-dihydroxybiphenyl-4-yl)(thiophen-2-yl)methanone], in experiment [1], the inhibition constant (Ki) was 1.75 nM and the CB1/CB2 was found to be 571. Further, the inhibitory constant (Ki) in experiment [2] was more than 1000 nM. Moreover, the inhibition at 0.01 µM in experiment [3] (A549, 10 ng/mL TNF-α, 18 hours) amounted to 55%. For the same compound, the “IL-6 Reduction” value in experiment [4] (10 nM compound) is reported as 35%.
